The values below come from ChEMBL document CHEMBL3425437, “Selective Inhibitors of Cyclin G Associated Kinase (GAK) as Anti-Hepatitis C Agents” (J Med Chem, 2015).

For data set [1], the system named is Hepatitis C virus. Nature of the data set: Antiviral activity against Hepatitis C virus J6/JFH infected in human Huh7.5 cells assessed as inhibition of viral replication measured after 72 hrs by luciferase reporter gene assay. The settings on record: Huh-7, 72 h. Format: functional, organism-based, Hepacivirus hominis.
Data set [2] deals with Hepatitis C virus. Put plainly: Antiviral activity against Hepatitis C virus J6/JFH electroporated in human Huh7.5 cells assessed as inhibition of intracellular infectivity drug treated every 24 hrs for 72 hrs measured 72 hrs post electroporation by luciferase reporter gene assay. The class given is functional, organism-based, Hepacivirus hominis. The settings on record: Huh-7.

The subject of data set [3] is Hepatitis C virus. Put plainly: Antiviral activity against Hepatitis C virus J6/JFH infected in human Huh7.5 cells assessed as inhibition of extracellular infectivity drug treated every 24 hrs for 72 hrs measured after 72 hrs by luciferase reporter gene assay. The class given is functional, organism-based, Hepacivirus hominis. The settings on record: Huh-7.
Data set [4] addresses T1, Cyclin-G-associated kinase (Homo sapiens, UniProt O14976).
T1 sequence (O14976 whole entry): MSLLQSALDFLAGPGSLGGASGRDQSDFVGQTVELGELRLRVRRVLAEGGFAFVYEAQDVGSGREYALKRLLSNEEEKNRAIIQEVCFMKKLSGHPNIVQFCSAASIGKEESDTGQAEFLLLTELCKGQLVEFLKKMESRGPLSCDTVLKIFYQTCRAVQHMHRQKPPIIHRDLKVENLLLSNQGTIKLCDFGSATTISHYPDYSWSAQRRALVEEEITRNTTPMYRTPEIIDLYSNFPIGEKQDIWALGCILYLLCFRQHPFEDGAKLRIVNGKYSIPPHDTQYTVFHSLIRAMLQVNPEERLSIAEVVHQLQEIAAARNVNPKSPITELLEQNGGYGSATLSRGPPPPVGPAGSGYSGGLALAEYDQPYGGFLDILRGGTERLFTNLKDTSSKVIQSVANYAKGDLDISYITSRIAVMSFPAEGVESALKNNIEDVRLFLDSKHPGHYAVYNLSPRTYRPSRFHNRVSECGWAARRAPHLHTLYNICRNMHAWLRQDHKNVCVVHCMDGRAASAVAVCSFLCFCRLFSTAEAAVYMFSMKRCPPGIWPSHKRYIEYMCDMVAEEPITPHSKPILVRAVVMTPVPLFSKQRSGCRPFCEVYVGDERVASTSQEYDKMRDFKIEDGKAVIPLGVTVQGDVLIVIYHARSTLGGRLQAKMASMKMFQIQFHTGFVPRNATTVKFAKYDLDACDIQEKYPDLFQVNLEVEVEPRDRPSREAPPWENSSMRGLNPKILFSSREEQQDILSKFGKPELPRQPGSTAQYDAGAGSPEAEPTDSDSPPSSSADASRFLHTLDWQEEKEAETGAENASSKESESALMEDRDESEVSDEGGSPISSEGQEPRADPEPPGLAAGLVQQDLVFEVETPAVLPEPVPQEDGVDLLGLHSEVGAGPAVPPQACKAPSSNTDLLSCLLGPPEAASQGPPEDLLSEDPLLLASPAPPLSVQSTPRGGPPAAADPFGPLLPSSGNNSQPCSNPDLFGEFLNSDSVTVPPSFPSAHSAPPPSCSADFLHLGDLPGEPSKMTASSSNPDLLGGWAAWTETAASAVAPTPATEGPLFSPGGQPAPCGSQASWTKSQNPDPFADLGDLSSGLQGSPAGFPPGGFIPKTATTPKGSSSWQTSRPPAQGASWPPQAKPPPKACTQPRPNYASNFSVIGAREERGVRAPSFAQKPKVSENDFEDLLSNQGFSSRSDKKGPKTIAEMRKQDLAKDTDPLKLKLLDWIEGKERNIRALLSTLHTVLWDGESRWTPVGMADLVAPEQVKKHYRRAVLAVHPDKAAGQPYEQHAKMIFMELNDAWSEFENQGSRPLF
Nature of the data set: Binding affinity to human GAK fused to T7 bacteriophage expressed in Escherichia coli BL21 after 1 hr by qPCR analysis.

Data set [5] is described as follows: Cytotoxicity against human Huh7.5 cells infected with Hepatitis C virus J6/JFH assessed as effect on cell viability after 72 hrs by Alamarblue assay. The class given is cell-based. To be noted: huh-7, 72 h.
Data set [6] deals with Hepatitis C virus. Nature of the data set: Antiviral activity against Hepatitis C virus H77 pseudoparticle assessed as inhibition of viral entry into human Huh7.5 cells after 4 hrs by luciferase reporter gene assay. To be noted: genotype 1a H77, Huh-7, 4 h. The class given is functional, cell-based, Hepacivirus hominis.
Data set [7] in a line: Cytotoxicity against human Huh7.5 cells infected with Hepatitis C virus H77 pseudoparticle assessed as effect on cell viability after 4 hrs by Alamarblue assay. The class given is cell-based. The settings on record: huh-7, 4 h.
Data set [8] deals with Dual specificity protein kinase CLK2 (Homo sapiens, UniProt P49760). Put plainly: Binding affinity to human CLK2.
Sequence of Dual specificity protein kinase CLK2 (P49760 whole entry): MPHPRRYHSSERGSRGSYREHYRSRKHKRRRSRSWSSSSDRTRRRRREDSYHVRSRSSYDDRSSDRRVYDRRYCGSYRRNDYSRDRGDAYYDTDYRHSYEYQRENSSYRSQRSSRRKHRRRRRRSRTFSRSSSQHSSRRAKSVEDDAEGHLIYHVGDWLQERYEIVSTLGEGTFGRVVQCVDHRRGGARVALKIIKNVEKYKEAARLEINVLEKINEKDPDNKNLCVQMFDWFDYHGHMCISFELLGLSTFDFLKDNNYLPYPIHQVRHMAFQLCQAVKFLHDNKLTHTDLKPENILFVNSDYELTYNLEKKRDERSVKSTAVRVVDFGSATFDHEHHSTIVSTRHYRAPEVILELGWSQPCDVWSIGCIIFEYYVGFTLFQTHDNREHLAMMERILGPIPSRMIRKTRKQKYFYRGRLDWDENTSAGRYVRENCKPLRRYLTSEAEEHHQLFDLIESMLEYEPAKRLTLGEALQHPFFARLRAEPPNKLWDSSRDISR
The target in data set [9] is Macrophage colony-stimulating factor 1 receptor (Homo sapiens, UniProt P07333). Put plainly: Binding affinity to human CSF1R.
Sequence of Macrophage colony-stimulating factor 1 receptor (P07333 whole entry): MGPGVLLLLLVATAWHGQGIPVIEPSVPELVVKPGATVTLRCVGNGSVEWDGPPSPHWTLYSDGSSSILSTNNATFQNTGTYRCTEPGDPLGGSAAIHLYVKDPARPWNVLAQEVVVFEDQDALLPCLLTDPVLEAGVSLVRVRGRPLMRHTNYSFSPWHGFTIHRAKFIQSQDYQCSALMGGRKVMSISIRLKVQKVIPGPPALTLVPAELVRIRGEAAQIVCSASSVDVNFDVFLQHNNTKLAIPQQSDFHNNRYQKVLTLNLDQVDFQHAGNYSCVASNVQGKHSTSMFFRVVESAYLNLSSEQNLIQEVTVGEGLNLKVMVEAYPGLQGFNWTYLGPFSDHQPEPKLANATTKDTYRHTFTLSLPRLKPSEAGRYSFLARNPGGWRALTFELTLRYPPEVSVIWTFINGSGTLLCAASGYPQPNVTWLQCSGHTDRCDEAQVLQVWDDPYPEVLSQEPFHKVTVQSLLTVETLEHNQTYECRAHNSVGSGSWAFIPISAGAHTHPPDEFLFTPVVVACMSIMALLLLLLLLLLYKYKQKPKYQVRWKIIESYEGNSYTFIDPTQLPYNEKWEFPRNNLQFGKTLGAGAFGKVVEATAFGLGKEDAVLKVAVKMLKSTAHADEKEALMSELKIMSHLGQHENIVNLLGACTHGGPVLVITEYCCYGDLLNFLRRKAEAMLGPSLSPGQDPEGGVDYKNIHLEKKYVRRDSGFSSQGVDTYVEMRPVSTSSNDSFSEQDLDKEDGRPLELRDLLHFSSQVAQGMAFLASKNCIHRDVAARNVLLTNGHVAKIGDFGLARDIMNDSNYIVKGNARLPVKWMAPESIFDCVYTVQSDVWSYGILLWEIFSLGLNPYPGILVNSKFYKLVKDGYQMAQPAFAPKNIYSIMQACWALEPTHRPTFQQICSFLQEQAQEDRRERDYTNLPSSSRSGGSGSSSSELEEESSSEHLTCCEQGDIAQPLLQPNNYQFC
Data set [10] deals with T2, Receptor-type tyrosine-protein kinase FLT3 (Homo sapiens, UniProt P36888).
T2 sequence (P36888 whole entry): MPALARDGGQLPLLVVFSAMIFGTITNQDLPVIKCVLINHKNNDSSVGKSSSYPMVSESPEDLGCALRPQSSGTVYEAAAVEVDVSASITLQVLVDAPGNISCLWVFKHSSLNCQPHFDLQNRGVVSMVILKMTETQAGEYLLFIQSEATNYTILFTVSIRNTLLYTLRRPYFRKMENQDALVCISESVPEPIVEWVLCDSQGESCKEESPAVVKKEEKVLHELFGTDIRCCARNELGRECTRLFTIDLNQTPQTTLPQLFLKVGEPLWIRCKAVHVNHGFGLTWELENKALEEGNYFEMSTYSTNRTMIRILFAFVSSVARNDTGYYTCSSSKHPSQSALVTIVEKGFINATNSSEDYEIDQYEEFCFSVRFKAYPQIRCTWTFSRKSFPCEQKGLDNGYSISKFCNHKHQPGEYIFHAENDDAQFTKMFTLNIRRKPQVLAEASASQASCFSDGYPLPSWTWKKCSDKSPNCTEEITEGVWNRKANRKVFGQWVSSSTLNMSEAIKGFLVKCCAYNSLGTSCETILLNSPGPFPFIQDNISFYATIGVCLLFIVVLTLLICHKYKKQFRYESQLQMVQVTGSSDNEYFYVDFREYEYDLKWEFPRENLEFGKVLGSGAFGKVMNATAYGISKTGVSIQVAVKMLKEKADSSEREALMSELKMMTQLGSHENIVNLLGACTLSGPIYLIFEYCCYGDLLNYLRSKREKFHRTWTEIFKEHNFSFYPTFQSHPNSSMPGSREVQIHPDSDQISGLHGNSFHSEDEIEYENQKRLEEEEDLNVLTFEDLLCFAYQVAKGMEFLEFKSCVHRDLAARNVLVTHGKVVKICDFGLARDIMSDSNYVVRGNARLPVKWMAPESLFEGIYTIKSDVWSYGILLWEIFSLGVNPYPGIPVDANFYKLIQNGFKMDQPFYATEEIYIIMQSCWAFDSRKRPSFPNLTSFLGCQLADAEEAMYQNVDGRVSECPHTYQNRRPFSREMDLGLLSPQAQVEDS
Nature of the data set: Binding affinity to human FLT3.

The target in data set [11] is Mast/stem cell growth factor receptor Kit (Homo sapiens, UniProt P10721). Put plainly: Binding affinity to human KIT.
Sequence of Mast/stem cell growth factor receptor Kit (P10721 whole entry): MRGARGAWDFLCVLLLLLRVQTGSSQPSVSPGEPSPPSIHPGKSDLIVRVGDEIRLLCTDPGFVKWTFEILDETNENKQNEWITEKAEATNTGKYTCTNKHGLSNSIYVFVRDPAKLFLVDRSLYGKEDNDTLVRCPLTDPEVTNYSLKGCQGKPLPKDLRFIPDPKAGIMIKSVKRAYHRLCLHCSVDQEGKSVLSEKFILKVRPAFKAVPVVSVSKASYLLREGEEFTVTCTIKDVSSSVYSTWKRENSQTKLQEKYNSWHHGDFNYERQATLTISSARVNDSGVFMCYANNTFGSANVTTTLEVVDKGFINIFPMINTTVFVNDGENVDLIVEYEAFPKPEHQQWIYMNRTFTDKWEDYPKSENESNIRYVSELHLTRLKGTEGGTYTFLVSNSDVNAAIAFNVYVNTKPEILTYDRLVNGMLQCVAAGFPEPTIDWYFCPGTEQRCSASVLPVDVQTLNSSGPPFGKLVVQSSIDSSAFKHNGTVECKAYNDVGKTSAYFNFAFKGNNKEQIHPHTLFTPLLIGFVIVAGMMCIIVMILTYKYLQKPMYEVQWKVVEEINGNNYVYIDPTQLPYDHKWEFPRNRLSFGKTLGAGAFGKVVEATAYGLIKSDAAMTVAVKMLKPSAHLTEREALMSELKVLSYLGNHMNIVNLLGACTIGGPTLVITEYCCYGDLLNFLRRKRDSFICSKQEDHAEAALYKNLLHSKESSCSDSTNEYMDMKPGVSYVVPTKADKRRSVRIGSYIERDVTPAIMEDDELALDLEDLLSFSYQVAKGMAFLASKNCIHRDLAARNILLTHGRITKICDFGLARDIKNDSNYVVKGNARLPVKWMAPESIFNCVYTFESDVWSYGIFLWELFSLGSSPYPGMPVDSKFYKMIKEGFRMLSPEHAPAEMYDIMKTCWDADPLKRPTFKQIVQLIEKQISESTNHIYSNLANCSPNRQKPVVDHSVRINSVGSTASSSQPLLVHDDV
Data set [12] deals with T3, Dual specificity mitogen-activated protein kinase kinase 5 (Homo sapiens, UniProt Q13163).
T3 sequence (Q13163 whole entry): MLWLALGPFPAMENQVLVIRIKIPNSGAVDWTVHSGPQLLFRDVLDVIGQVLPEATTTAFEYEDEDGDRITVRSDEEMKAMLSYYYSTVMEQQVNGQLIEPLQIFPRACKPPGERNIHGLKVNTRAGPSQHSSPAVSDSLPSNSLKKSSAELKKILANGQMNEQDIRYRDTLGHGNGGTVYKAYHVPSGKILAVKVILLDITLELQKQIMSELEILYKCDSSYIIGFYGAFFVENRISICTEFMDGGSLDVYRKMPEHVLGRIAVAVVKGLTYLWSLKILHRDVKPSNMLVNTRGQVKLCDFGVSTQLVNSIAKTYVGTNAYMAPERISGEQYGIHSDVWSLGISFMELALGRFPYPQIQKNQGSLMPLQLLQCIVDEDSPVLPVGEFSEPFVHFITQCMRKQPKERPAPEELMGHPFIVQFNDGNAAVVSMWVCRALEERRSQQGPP
Nature of the data set: Binding affinity to human MEK5.

Data set [13] has as its target Platelet-derived growth factor receptor alpha (Homo sapiens, UniProt P16234). Nature of the data set: Binding affinity to human PDGFRalpha.
Data set [14] addresses Platelet-derived growth factor receptor beta (Homo sapiens, UniProt P09619). Nature of the data set: Binding affinity to human PDGFRbeta.

Sequence of Platelet-derived growth factor receptor beta (P09619 whole entry): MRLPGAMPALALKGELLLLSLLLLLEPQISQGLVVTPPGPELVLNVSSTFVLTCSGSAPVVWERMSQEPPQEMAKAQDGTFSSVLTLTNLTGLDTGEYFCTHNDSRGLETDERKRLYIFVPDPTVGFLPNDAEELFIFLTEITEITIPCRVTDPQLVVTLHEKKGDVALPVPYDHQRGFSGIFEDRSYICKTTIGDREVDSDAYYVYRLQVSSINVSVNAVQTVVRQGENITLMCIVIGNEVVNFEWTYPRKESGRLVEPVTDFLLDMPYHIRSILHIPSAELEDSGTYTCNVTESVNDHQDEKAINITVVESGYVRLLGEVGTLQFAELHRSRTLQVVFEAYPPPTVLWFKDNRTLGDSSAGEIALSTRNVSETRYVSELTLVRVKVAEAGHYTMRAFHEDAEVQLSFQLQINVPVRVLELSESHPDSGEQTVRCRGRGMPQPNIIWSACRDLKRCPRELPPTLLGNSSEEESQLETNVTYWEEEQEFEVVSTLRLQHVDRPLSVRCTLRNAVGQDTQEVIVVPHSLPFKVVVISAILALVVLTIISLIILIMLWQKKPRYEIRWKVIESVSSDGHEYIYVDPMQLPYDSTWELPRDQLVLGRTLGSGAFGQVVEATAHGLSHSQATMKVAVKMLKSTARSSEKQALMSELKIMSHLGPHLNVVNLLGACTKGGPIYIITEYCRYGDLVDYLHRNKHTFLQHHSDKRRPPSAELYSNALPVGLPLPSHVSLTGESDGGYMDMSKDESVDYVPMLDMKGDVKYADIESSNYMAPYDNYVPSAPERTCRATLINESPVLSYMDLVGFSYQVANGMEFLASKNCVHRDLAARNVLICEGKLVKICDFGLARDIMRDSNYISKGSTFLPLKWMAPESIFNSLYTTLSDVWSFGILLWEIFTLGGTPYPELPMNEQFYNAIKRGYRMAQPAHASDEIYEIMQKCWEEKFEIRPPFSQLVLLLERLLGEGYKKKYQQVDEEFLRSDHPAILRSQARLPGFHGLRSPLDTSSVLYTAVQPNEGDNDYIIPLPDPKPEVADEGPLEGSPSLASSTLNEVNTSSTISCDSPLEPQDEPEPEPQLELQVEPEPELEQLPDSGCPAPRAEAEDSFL
Sequence of Platelet-derived growth factor receptor alpha (P16234 whole entry): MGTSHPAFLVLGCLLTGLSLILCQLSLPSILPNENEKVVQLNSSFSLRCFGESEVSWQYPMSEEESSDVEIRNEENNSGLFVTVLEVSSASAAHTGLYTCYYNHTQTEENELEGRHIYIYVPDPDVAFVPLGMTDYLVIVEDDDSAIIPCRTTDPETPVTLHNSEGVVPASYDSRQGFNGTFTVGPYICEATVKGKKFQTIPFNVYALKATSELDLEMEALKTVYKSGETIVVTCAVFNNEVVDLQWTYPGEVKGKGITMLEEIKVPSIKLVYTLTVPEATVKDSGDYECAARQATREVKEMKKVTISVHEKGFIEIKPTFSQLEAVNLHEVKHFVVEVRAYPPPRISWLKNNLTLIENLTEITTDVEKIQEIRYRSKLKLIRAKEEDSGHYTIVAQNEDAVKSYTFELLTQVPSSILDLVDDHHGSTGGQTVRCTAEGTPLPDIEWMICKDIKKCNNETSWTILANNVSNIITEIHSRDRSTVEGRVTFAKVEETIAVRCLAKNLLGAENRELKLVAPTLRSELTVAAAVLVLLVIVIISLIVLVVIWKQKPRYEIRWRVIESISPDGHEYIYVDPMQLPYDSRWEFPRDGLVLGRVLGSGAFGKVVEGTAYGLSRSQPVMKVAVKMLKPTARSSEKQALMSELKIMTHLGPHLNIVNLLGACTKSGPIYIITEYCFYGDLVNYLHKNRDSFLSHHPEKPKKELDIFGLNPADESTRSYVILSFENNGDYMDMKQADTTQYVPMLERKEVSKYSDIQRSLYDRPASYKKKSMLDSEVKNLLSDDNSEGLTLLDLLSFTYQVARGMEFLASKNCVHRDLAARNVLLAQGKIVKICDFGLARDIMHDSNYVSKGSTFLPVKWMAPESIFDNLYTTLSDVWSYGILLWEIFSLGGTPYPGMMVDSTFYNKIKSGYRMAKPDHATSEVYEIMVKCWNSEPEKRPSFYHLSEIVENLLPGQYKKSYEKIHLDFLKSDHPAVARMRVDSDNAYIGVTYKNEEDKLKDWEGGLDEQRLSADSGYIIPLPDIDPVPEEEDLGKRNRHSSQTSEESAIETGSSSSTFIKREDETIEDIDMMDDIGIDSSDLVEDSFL

For the molecule `C#Cc1cccc(Nc2ncnc3cc(OCCOC)c(OCCOC)cc23)c1` [ERLOTINIB], the EC50 in [1], in [2] and in data set [3] was 500 nM each time.
In turn, `c1cc(-c2cnc3c(N4CCOCC4)snc3c2)co1` displayed a Kd in data set [4] of 200 nM. In other words, the sub-micromolar range.
`COc1cc(OC)cc(-c2cnc3c(N4CCOCC4)snc3c2)c1`: in [4], the Kd worked out at 72 nM.
Take `COc1cc(-c2cnc3c(N4CCOCC4)snc3c2)cc(OC)c1OC`: the EC50 worked out at 2550 nM in data set [1], 3600 nM in [6], 1640 nM in [2] and 2130 nM in data set [3]. In addition, the CC50 in [5] came out at 23300 nM. In data set [7], the Activity result was “Non-toxic”. Moreover, the Kd is 710 nM in data set [8]; 320 nM in data set [9]; 110 nM in data set [10]; 29 nM in data set [11]; 150 nM in [12]; 220 nM in data set [13]. For the same molecule, in [14], the Kd worked out at 70 nM.
`COc1cc(-c2cnc3c(N4CCOCC4)snc3c2)ccc1OC(C)=O` displayed a Kd in data set [4] of 18 nM.
The molecule `COc1cc(-c2cnc3c(N4CCOCC4)snc3c2)ccc1O` displayed a Kd in [4] of 18 nM.
The same measure, in the same setting: the result for `COc1ccc(-c2cnc3c(N4CCOCC4)snc3c2)cc1OC` reads 52 nM.
Still for that read-out and setting: the result for `c1cc(-c2cnc3c(N4CCOCC4)snc3c2)cs1` reads 42 nM.
Turning to `COc1cc(-c2cnc3c(N4CCOCC4)snc3c2)ccc1N`, the Activity entry in [7] was “Non-toxic”.
Turning to `COc1ccc(OC)c(-c2cnc3c(N4CCOCC4)snc3c2)c1`, the Kd in [4] was determined as 130 nM.
